Data: patent US20080262097A1, “Formulations” (priority 2005, published 2008)
Converted amounts (≈) assume the structure as drawn.

Legend:
P. acnes NCTC 737 [1] = experiment: Disc diffusion assay (DDA); format: cell-based, Propionibacterium acnes; conditions: Table 11 (Example 9), 200 μg per disc, mean of three replicates
Procedure: (§1) 2. Propionibacterium spp.—the principal propionibacterial strain used in these studies was Propionibacterium acnes NCTC 737.
(§2) The Propionibacterium spp organisms were cultured and maintained on Wilkins-Chalgren Anaerobe Medium (agar and broth) at pH 6.0; cultures were incubated anaerobically at 37° C. for 72 hours.
A sterile paper disc was impregnated with a sample of the test compound and a minimum of 30 minutes allowed for the solvents to evaporate as far as possible. The disc was then placed on an agar plate onto which the test micro-organism had been inoculated. The plate was then incubated under the conditions described above, following which it was examined visually for signs of bacterial growth. […] The diameter of this zone of “inhibition” was measured using a ProtoCOL™ automated zone sizer (Synbiosis, Cambridge, UK).
The area of the zone of inhibition was calculated from the measured zone diameter (D) using the formula π(D/2)^2.
(§3) For all (S)DDA assays, 200 μg of each compound was loaded onto each disc.

P. acnes NCTC 737 [2] = experiment: Synergy disc diffusion assay (SDDA); format: cell-based, Propionibacterium acnes; conditions: for SDDA area increase / SDDA increase: peroxide + TBHQ; for SDDA area increase: over larger single-compound zone; for SDDA increase: over larger single-compound zone diameter; for SDDA with TBHQ: peroxide combined with TBHQ on one disc, 200 μg of each
Procedure: as §1, §2
This is a variation on the DDA method, in which two compounds are tested together for their combined antimicrobial activity. It provides a qualitative indication as to whether the compounds are likely to interact synergistically.
Two test compounds A and B were placed on a single paper disc and the above described DDA procedure repeated.
Each of the quinones was then subjected, in combination with BP, to the SDDA assay described above.
as §3

S. aureus ATCC 29213 [3] = experiment: MIC assay; format: cell-based, Staphylococcus aureus; conditions: S. aureus ATCC 29213; Table 1 (Example 1)
Procedure: 1. Staphylococcus aureus—the principal staphylococcal test micro-organism used in these studies was Staphylococcus aureus ATCC 29213. This strain is the one recommended for QC/QA purposes in Minimum Inhibitory Concentration (MIC) assays by the US Clinical and Laboratory Standards Institute (formerly the NCCLS), an FDA-recognised body. […] The staphylococci and enterococci were cultured and maintained on Mueller-Hinton Medium (agar and broth) at pH 7.2; they were incubated aerobically at 37° C. for 24 hours. This is a standard international method for quantitatively assessing the antimicrobial activity of a compound in a liquid medium. The method used a 96-well microtitre plate, capable of holding about 200 μl of liquid per well. […] The culture media were as described above for the relevant test organisms. The wells were inoculated with a liquid suspension of freshly grown micro-organism and incubated under the conditions described above. After incubation, the microtitre plate was examined visually (with the aid of a light box) for cell pellets in and/or opaque wells, which would indicate microbial growth. The MIC value was recorded as the lowest concentration of test compound required to inhibit microbial growth, ie, the lowest concentration for which the liquid in the well remained clear. The assays were conducted in duplicate and included both negative (culture medium only) and positive (culture medium, diluting solvent and inoculum) controls.

S. aureus ATCC 29213 [4] = experiment: Disc diffusion assay (DDA); format: cell-based, Staphylococcus aureus; conditions: Table 1, zone diameter, 200 μg per disc (thymoquinone 50 μg)
From the text: 1. Staphylococcus aureus—the principal staphylococcal test micro-organism used in these studies was Staphylococcus aureus ATCC 29213. This strain is the one recommended for QC/QA purposes in Minimum Inhibitory Concentration (MIC) assays by the US Clinical and Laboratory Standards Institute (formerly the NCCLS), an FDA-recognised body. S. aureus ATCC 29213 is susceptible to beta-lactam antibiotics such as methicillin and to many other antibiotics in clinical use worldwide today. The staphylococci and enterococci were cultured and maintained on Mueller-Hinton Medium (agar and broth) at pH 7.2; they were incubated aerobically at 37° C. for 24 hours. A sterile paper disc was impregnated with a sample of the test compound and a minimum of 30 minutes allowed for the solvents to evaporate as far as possible. The disc was then placed on an agar plate onto which the test micro-organism had been inoculated. The plate was then incubated under the conditions described above, following which it was examined visually for signs of bacterial growth. If the test compound had antimicrobial activity, a circular zone of no growth would be obtained around the disc. The diameter of this zone of “inhibition” was measured using a ProtoCOL™ automated zone sizer (Synbiosis, Cambridge, UK). In general, a greater diameter and/or area of the zone of inhibition indicates a greater antimicrobial activity in the relevant test compound, although other factors such as test compound mobility through the agar gel may also influence the result. […] The exceptions were the thymoquinone assays, in which only 50 μg of the benzoquinone was used.

S. aureus ATCC 29213 [5] = experiment: Synergy disc diffusion assay (SDDA); format: cell-based, Staphylococcus aureus; conditions: for SDDA area increase / SDDA increase: quinone + BP; for SDDA area increase: over larger single-compound zone; for SDDA increase: over larger single-compound zone diameter; for SDDA with BP: quinone combined with BP on one disc, 200 μg of each (thymoquinone 50 μg)
From the text: 1. Staphylococcus aureus—the principal staphylococcal test micro-organism used in these studies was Staphylococcus aureus ATCC 29213. This strain is the one recommended for QC/QA purposes in Minimum Inhibitory Concentration (MIC) assays by the US Clinical and Laboratory Standards Institute (formerly the NCCLS), an FDA-recognised body. S. aureus ATCC 29213 is susceptible to beta-lactam antibiotics such as methicillin and to many other antibiotics in clinical use worldwide today. The staphylococci and enterococci were cultured and maintained on Mueller-Hinton Medium (agar and broth) at pH 7.2; they were incubated aerobically at 37° C. for 24 hours. This is a variation on the DDA method, in which two compounds are tested together for their combined antimicrobial activity. It provides a qualitative indication as to whether the compounds are likely to interact synergistically. Two test compounds A and B were placed on a single paper disc and the above described DDA procedure repeated. An increase in diameter of the zone of inhibition, compared to the greater of the zone diameters for the two compounds individually, was taken to indicate potential antimicrobial synergy. […] The larger the increase in zone size, the greater the likelihood of a synergistic interaction between the two test compounds. Each of the quinones was then subjected, in combination with BP, to the SDDA assay described above. In each case, increases in zone diameter (mm) and area (%) were measured with respect to those observed for the compound showing the larger zone diameters during the previous disc diffusion assays on the individual compounds. […] The exceptions were the thymoquinone assays, in which only 50 μg of the benzoquinone was used.

S. aureus ATCC 29213 [6] = experiment: Supplemented disc diffusion assay (DDA + salt, lipid or blood); format: cell-based, Staphylococcus aureus; conditions: 200 μg per disc (thymoquinone 50 μg); for DDA + blood: agar supplemented with blood; for DDA + lipid: agar supplemented with lipid; for DDA + salt: agar supplemented with salt
Procedure: The staphylococci and enterococci were cultured and maintained on Mueller-Hinton Medium (agar and broth) at pH 7.2; they were incubated aerobically at 37° C. for 24 hours. A sterile paper disc was impregnated with a sample of the test compound and a minimum of 30 minutes allowed for the solvents to evaporate as far as possible. The disc was then placed on an agar plate onto which the test micro-organism had been inoculated. The plate was then incubated under the conditions described above, following which it was examined visually for signs of bacterial growth. If the test compound had antimicrobial activity, a circular zone of no growth would be obtained around the disc. The diameter of this zone of “inhibition” was measured using a ProtoCOL™ automated zone sizer (Synbiosis, Cambridge, UK). In general, a greater diameter and/or area of the zone of inhibition indicates a greater antimicrobial activity in the relevant test compound, although other factors such as test compound mobility through the agar gel may also influence the result. Either the DDA or the SDDA tests may be carried out using an agar gel supplemented with blood, lipid and/or salt to simulate some of the major components present in human skin and to assess whether these substances might reduce the antimicrobial activity observed for the test compounds. Performance under these conditions can provide a more reliable indication of activity on topical application. […] MIC, MBC and DDA assays, as described above, were carried out using the test compound benzoyl peroxide (BP) and a range of different benzoquinones and hydroquinones. Supplemented DDA assays, in the presence of salt, lipid and blood, were also conducted. […] The exceptions were the thymoquinone assays, in which only 50 μg of the benzoquinone was used.

S. aureus ATCC 29213 [7] = experiment: MBC assay; format: cell-based, Staphylococcus aureus; conditions: S. aureus ATCC 29213; Table 1 (Example 1)
Procedure: 1. Staphylococcus aureus—the principal staphylococcal test micro-organism used in these studies was Staphylococcus aureus ATCC 29213. This strain is the one recommended for QC/QA purposes in Minimum Inhibitory Concentration (MIC) assays by the US Clinical and Laboratory Standards Institute (formerly the NCCLS), an FDA-recognised body. […] The staphylococci and enterococci were cultured and maintained on Mueller-Hinton Medium (agar and broth) at pH 7.2; they were incubated aerobically at 37° C. for 24 hours. This assay, normally carried out after an MIC assay, determines the minimum concentration of a compound that is lethal to the micro-organism being tested. […] These samples were then individually sub-cultured on non-selective agar medium, under the incubation conditions described above. Following incubation they were examined visually for bacterial growth.

| SMILES | DDA (P. acnes NCTC 737 [1]) | SDDA area increase (P. acnes NCTC 737 [2]) | SDDA increase (P. acnes NCTC 737 [2]) | SDDA with TBHQ (P. acnes NCTC 737 [2]) | MIC (S. aureus ATCC 29213 [3]) | DDA (S. aureus ATCC 29213 [4]) | SDDA area increase (S. aureus ATCC 29213 [5]) | SDDA increase (S. aureus ATCC 29213 [5]) | SDDA with BP (S. aureus ATCC 29213 [5]) | DDA + blood (S. aureus ATCC 29213 [6]) | DDA + lipid (S. aureus ATCC 29213 [6]) | DDA + salt (S. aureus ATCC 29213 [6]) | MBC (S. aureus ATCC 29213 [7]) |
| --- | --- | --- | --- | --- | --- | --- | --- | --- | --- | --- | --- | --- | --- |
| [Ca+2].[O-][O-] [calcium peroxide] | 0.0 mm | 544.48% | 23.08 mm | 38.08 mm | – | – | – | – | – | – | – | – | – |
| Cc1cc(O)ccc1O [2-methyl-p-hydroquinone] | – | – | – | – | 15.6 µg/mL (≈ 126 µM) | 25.70 mm | 62.56% | 7.07 mm | 32.77 mm | 18.74 mm | 24.68 mm | 22.49 mm | 15.6 µg/mL (≈ 126 µM) |
| [Mg+2].[O-][O-] [magnesium peroxide] | 0.0 mm | 523.33% | 22.45 mm | 37.45 mm | – | – | – | – | – | – | – | – | – |
| CC(C)(C)OO [t-butyl hydroperoxide] | 0.0 mm | 188.77% | 10.49 mm | 25.49 mm | – | – | – | – | – | – | – | – | – |
| [Na+].[Na+].[O-][O-] [sodium peroxide] | 0.0 mm | 128.21% | 7.66 mm | 22.66 mm | – | – | – | – | – | – | – | – | – |
| Cc1cc(O)c(C(C)C)cc1O [thymohydroquinone, 2-iso-propyl-5-methyl-p-hydroquinone] | – | – | – | – | 7.8 µg/mL (≈ 46.9 µM) | 57.62 mm | 70.26% | 17.56 mm | 75.18 mm | 10.27 mm | 41.71 mm | 57.59 mm | 15.6 µg/mL (≈ 93.9 µM) |
